Measurements published in patent US20090124636A1, “CHEMICAL COMPOUNDS” (priority 2006, published 2009).

test system: HIV-1 fusion; assay: cells; format: cell-based; conditions: HIV cell fusion assay; HeLa P4 (CCR5/CD4) and CHO-Tat10 (gp160 JRFL) cells; read-out: IC50
Procedure: The gp160 induced cell-cell fusion assay uses a HeLa P4 cell line and a CHO-Tat10 cell line.
The HeLa P4 cell line expresses CCR5 and CD4 and has been transfected with HIV-1 LTR-β-Galactosidase. The media for this cell line is Dulbecco modified eagle's medium (D-MEM) (without L-glutamine) containing 10% foetal calf serum (FCS), 2 mM L-glutamine, penicillin/streptomycin (Pen/Strep; 100 U/mL penicillin+[…] streptomycin), and 1 μg/ml puromycin.
The CHO cell line is a Tat (transcriptional trans activator)-expressing clone from a CHO JRR17.1 cell line that has been transfected with pTat puro plasmid. The media for this cell line is rich medium for mammalian cell culture originally developed at Roswell Park Memorial Institute RPMI1640 (without L-glutamine) containing 10% FCS, 2 mM L-glutamine, 0.5 mg/ml Hygromycin B and 12 μg/ml puromycin. The CHO JRR17.1 line expresses gp160 (JRFL) and is a clone that has been selected for its ability to fuse with a CCR5/CD4 expressing cell line.
Upon cell fusion, Tat present in the CHO cell is able to transactivate the HIV-1 long terminal repeat (LTR) present in the HeLa cell leading to the expression of the β-Galactosidase enzyme. This expression is then measured using a Fluor Ace™ β-Galactosidase reporter assay kit (Bio-Rad cat no. 170-3150). This kit is a quantitative fluorescent assay that determines the level of expression of β-galactosidase using 4-methylumbelliferyl-galactopyranoside (MUG) as substrate. β-Galactosidase hydrolyses the fluorogenic substrate resulting in release of the fluorescent molecule 4-methylumbelliferone (4 MU). Fluorescence of 4-methylumbelliferone is then measured on a fluorometer using an excitation wavelength of 360 nm and emission wavelength of 460 nm.

| Compound | IC50 [µM] |
| --- | --- |
| Cc1ncnc(C)c1C(=O)N1CCC(N2CC[C@@H](N(Cc3cccc(F)c3)C(=O)C3CC(F)(F)C3)C2)CC1 [Example 39] | 0.227 |
| COCC(=O)N(Cc1cc(F)ccc1F)[C@@H]1CCN(C2CCN(C(=O)c3c(C)ccnc3C)CC2)C1 [Example 23] | 0.00142 |
| Cc1cccc(C)c1C(=O)N1CCC(N2CC[C@@H](N(Cc3ccccc3)C(=O)CC(F)(F)F)C2)CC1 [Example 6] | 0.00034 |
| COCCC(=O)N(Cc1ccccc1)[C@@H]1CCN(C2CCN(C(=O)c3c(C)cccc3C)CC2)C1 [Example 13] | 0.00483 |
| CCOc1ccccc1C(=O)N1CCC(N2CC[C@@H](N(Cc3ccccc3)C(=O)C3CCC3)C2)CC1 [Example 40] | 0.12 |
| Cc1ccnc(C)c1C(=O)N1CCC(N2CC[C@@H](N(Cc3ccccc3)C(=O)C(C)C)C2)CC1 [Example 30] | 0.0189 |
| Cc1onc(C(C)C)c1C(=O)N1CCC(N2CC[C@@H](N(Cc3ccccc3)C(=O)C3CC3)C2)CC1 [Example 42] | 0.0663 |
